Laboratory results: US8133881B2, “Carbohydrate conjugates to prevent abuse of controlled substances” (Shire LLC, priority 2003, dated 2012)

Tests used:
[1] = Oral bioavailability of Hydrocodone vs. Galactose-Hydrocodone
[2] = Intranasal bioavailability of Hydrocodone vs. Galactose Hydrocodone
[3] = Kitchen test stability of conjugate (release of hydrocodone on heating in pH solutions); type: physicochemical; conditions: for Percent Hydrocodone released: 80-90° C.
Description: To determine the accessibility of active narcotic from the synthetic conjugates, an attempt was made to release the narcotic from its conjugate. In a kitchen test, we determined the stability of the conjugates when subjected to conditions that would be available to any drug addict. Thus, the kitchen test is a model of “street-safeness” for the narcotics conjugates. The conjugates were heated in a water bath (80-90° C.) in a pH range (1-12) over a 1 hour time course. This pH range constitutes about any solution that can be found commercially at any grocery or drug store. The release of the narcotic from the conjugate was monitored by HPLC and quantified with a dose-response calibration curve of the parent narcotic.
Using only solutions that would be available to an addict, conjugates were dissolved in water. Water insoluble conjugates were either (a) dissolved in a minimum amount (≦5% v/v) of organic solvent [e.g., DMSO, methanol, or ethanol], (b) added as a suspension to the assay, or (c) dissolved completely in chloroform, and aliquoted to a test tube where the chloroform is evaporated, leaving only a known amount of conjugate. Upon preparation of the conjugate, the conjugate is added to the various pH solutions and heated for 0, 5, 15, or 60 minutes. At the indicated time point, each test tube was removed from the water bath and neutralized with a chilled phosphate buffer (100 mM, pH 7, 4° C.).
The kitchen test proceeds as follows: • 1. pH solutions [1, 4, 7, 9, 12] prepared with HPLC grade H2O and titrated with NaOH or HCl • 2. prepare hot water bath, keeping temperature at 80-90° C. • 3. conjugates prepared at a concentration of 1 mg/ml as indicated above • 4. 250 μl of conjugate added to 750 μl of pH solutions (final assay volume is 1 ml; if conjugate has been evaporated from CHCl3, add 1 ml of pH solution to test tube) • 5. immediately following the addition of conjugate to pH solution, place test tube in hot water bath (80-90° C.) • 6. at indicated time point, remove test tubes from heat and neutralize with 1 ml of chilled phosphate buffer [0 time point is not heated, but immediately neutralized with phosphate buffer after the addition of conjugate to each pH solution] • 7. before aliquoting each sample for HPLC analysis, the volume of each tube is adjusted to 2 ml to account for changes in concentration from evaporation
Following HPLC analysis, the amount of released narcotic was extrapolated from a calibration curve of the parent drug and plotted as % narcotic released (w/w, based upon theoretical loading of conjugated species) vs. time.

[4] = Intranasal bioavailability of Hydrocodone vs. Ribose Hydrocodone
[5] = Intravenous bioavailability of Hydrocodone vs. Ribose Hydrocodone
[6] = Oral bioavailability of Hydrocodone vs. Ribose-Hydrocodone (serum levels)

COc1ccc2c3c1OC1C(OC(=O)OC[C@H]4O[C@H](O)[C@H](O)[C@@H](O)[C@H]4O)=CCC4[C@@H](C2)[N@@H+](C)CC[C@]314.[Cl-] (some centres unmarked) [Galactose-Hydrocodone, Galacto-Hydrocodone]
Bioavailability compared to Hydrocodone-Bitartarate [1]: approached that of Hydrocodone-Bitaratarate | Bioavailability compared to Hydrocodone-Bitartarate [2]: marginally decreased

COc1ccc2c3c1OC1C(OC(=O)OC[C@H]4OC(O)C(O)[C@H]4O)=CCC4[C@@H](C2)[N@@H+](C)CC[C@]314.[Cl-] (some centres unmarked) [Ribose-Hydrocodone, Ribo-Hydrocodone]
Percent Hydrocodone released ([3]; pH 1, 5 minutes, relative to zero hour level of free Hydrocodone): 8% | Percent Hydrocodone released ([3]; pH 1, 15 minutes, relative to zero hour level): 18% | Percent Hydrocodone released ([3]; pH 1, 60 minutes, relative to zero hour level): 27.8% | Percent Hydrocodone released ([3]; pH 4, 5 minutes, relative to zero hour level): 11% | Percent Hydrocodone released ([3]; pH 4, 15 minutes, relative to zero hour level): 12.6% | Percent Hydrocodone released ([3]; pH 4, 60 minutes, relative to zero hour level): 19.6% | Percent Hydrocodone released ([3]; pH 7, 5 minutes, relative to zero hour level): 12% | Percent Hydrocodone released ([3]; pH 7, 15 minutes, relative to zero hour level): 16% | Percent Hydrocodone released ([3]; pH 7, 60 minutes, relative to zero hour level): 23.4% | Percent Hydrocodone released ([3]; pH 9, 5 minutes, relative to zero hour level): 9% | Percent Hydrocodone released ([3]; pH 9, 15 minutes, relative to zero hour level): 11% | Percent Hydrocodone released ([3]; pH 9, 60 minutes, relative to zero hour level): 21% | hydrocodone released from the conjugate ([3]; pH 12): less than half | Percent Hydrocodone released ([3]; pH 12, 5 minutes, relative to zero hour level): 44% | Percent Hydrocodone released ([3]; pH 12, 15 minutes, relative to zero hour level): 33% | Percent Hydrocodone released ([3]; pH 12, 60 minutes, relative to zero hour level): 41.1% | amount of hydrocodone released ([3]; pHs other than pH 12, after one hour at 90° C.): ≤ 27.8% | Bioavailability compared to Hydrocodone-Bitartarate [4]: decreased | Bioavailability compared to Hydrocodone-Bitartarate [5]: decreased | clearance rate [5]: increased clearance rate | Bioavailability compared to Hydrocodone-Bitartarate [6]: approximately equal
